Assay results from patent US10668043B2, “Potentiated antimicrobial agents” (priority 2014, dated 2020).
Converted amounts (≈) assume the structure as drawn.

Key:
Staphylococcus = test: etest on agar containing the booster; assay type: cell-based; settings: MRSA 10178
From the text: (§1) The corresponding tests are made based on the usual MIC test: the etest® (Biomerieux) strip is deposited onto the surface of a seeded agar medium in which the booster has been incorporated. This test enables solvent effect risks, that is a possible interaction with the solvent used in vitro, to be minimised.
(§2) The control corresponds to the test made without cineol. A control is made in each solvent tested: distilled water, Tween/water and DMSO. • ED control=antibiotic alone in distilled water • DMSO control=antibiotic alone in DMSO • TE control=antibiotic alone in Tween® 80

E. coli = test: etest on agar containing the booster; assay type: cell-based; settings: Escherichia coli, Coli 8150
From the text: as §1, §2

[1] = orally; two mammal species (cats and rats); cited from earlier work
[2] = mouse, intravenous; cited from earlier work
MSSA 8238 = settings: Sc.; gentamycin 6 mg/kg or amoxicillin 30 mg/kg, cineol 30 mg/kg where present
Procedure: To Balb/c mice, is injected (Sc.) the antimicrobial product or the antimicrobial+booster mixture.
At different post-injection times, the mice are euthanised, and blood sampled, heparined and centrifuged to extract plasma thereof
Antibacterial effects are measured after 24 h incubation. The successive dilutions enable the antimicrobial effect to be determined and compared with the MIC. The efficient concentration/MIC ratio is thus determined.

[3] = DMSO control (antibiotic alone)
[4] = ED control (antibiotic alone in distilled water)
[5] = Tween water control (antibiotic alone)

Row | Compound | MIC (Staphylococcus; Cineol 1 mg DMSO) | MIC (Staphylococcus; Cineol 1 mg Tween/water) | MIC (Staphylococcus; Cineol 4 mg DMSO) | MIC (Staphylococcus; Cineol 4 mg Tween/water) | MIC (Staphylococcus; Cineol 16 mg DMSO) | MIC (Staphylococcus; Cineol 16 mg Tween/water) | MIC (Staphylococcus; [3]) | MIC (Staphylococcus; [4]) | MIC (Staphylococcus; [5]) | other results
1 | CC1(C)S[C@@H]2[C@H](NC(=O)Cc3ccccc3)C(=O)N2[C@H]1C(=O)O [Penicillin G] | 0.75^+ mg/L | 0.5 µg/mL (≈ 1.5 µM) | 0.5^+ mg/L | 0.38^+ mg/L | 0.19^+ mg/L | 0.125^+ mg/L | 1.5 µg/mL (≈ 4.49 µM) | 1 µg/mL (≈ 2.99 µM) | 0.5 µg/mL (≈ 1.5 µM) | 
2 | CN(C)c1cc(NC(=O)CNC(C)(C)C)c(O)c2c1C[C@H]1C[C@H]3[C@H](N(C)C)C(O)=C(C(N)=O)C(=O)[C@@]3(O)C(O)=C1C2=O [Tigecycline] | 0.19 µg/mL (≈ 0.324 µM) | 0.125 µg/mL (≈ 0.213 µM) | 0.19 µg/mL (≈ 0.324 µM) | 0.094 µg/mL (≈ 0.161 µM) | 0.125 µg/mL (≈ 0.213 µM) | 0.094 µg/mL (≈ 0.161 µM) | 0.25 µg/mL (≈ 0.427 µM) | 0.125 µg/mL (≈ 0.213 µM) | 0.125 µg/mL (≈ 0.213 µM) | MIC (E. coli; Cineol 1 mg DMSO): 0.19 µg/mL (≈ 0.324 µM); MIC (E. coli; Cineol 1 mg Tween/water): 0.125 µg/mL (≈ 0.213 µM); MIC (E. coli; Cineol 4 mg DMSO): 0.125 µg/mL (≈ 0.213 µM); MIC (E. coli; Cineol 4 mg Tween/water): 0.094 µg/mL (≈ 0.161 µM); MIC (E. coli; Cineol 16 mg DMSO): 0.064 µg/mL (≈ 0.109 µM); MIC (E. coli; Cineol 16 mg Tween/water): 0.1 µg/mL (≈ 0.171 µM); MIC (E. coli; [3]): 0.19 µg/mL (≈ 0.324 µM); MIC (E. coli; [4]): 0.125 µg/mL (≈ 0.213 µM); MIC (E. coli; [5]): 0.125 µg/mL (≈ 0.213 µM)
3 | Cc1ccc(C(C)C)cc1O [carvacrol] |  |  |  |  |  |  |  |  |  | lowest letal dose [1]: 100 mg/kg; LD 50 [2]: 80 mg/kg
4 | gentamycin |  |  |  |  |  |  |  |  |  | Time spent beyond the MIC (MSSA 8238): <5 h
